Measurements published in article PMC10600239, “Selective MCL-1 inhibitor ABBV-467 is efficacious in tumor models but is associated with cardiac troponin increases in patients” (Communications Medicine, 2023).
Where “and” joins values, the source holds several entries; their conditions need not be identical. Equal entries are not always repeated.

System: AMO-1 xenografts
Assay: AMO-1 xenograft efficacy (tumor volume, body weight)
Format: in vivo, mouse
Conditions: for % Weight Change (individual weights) / Weight, g (individual weights): individual animal, Day 21; for Xenograft AMO-1 (DSMZ) (mm³) Day 16 / Xenograft AMO-1 (DSMZ) (mm³) Day 19: tumor volume
Procedure: All animal studies were conducted in accordance with the guidelines approved by the Institutional Animal Care and Use Committees of AbbVie. The research protocol was approved by In Vivo Pharmacology at AbbVie prior to study initiation but was not publicly registered or disclosed. Female C.B-17 SCID-beige mice (AMO-1, OPM-2, NCI-H929, and OCI-AML2 xenografts) and female NSG mice (MV4-11-Red.Fluc systemic) were purchased from Charles River Laboratories (Wilmington, MA). Animals were housed in a light cycle-controlled room with HEPA filtration at 22 °C. Animals had nesting and climbing cage topper as the primary environmental enrichment. Animals were inoculated subcutaneously in the right flank with 5 × 10^6 (AMO-1, OPM-2, NCI-H929, and OCI-AML2) or intravenous (IV) with 5 × 10^6 (MV4-11-Red.Fluc). The inoculation volume (0.2 mL) comprised a 50:50 mixture of cells in growth media and Matrigel (BD Biosciences) for subcutaneous injections and 100% phosphate-buffered saline for IV administration. All cell lines used in this publication were authenticated using IDEXX for STR profiling as well as their IMPACT and human IMPACT panels for pathogen screening. Electronic calipers were used to measure the length and width of each tumor 2 to 3 times per week. Tumor volume was estimated by applying the following equation: volume = length × width^2/2. All groups remained blinded during measurements and dosing; only veterinary staff were aware of group identity. When tumors reached approximately 200 mm^3, mice were randomized by match and distributed into treatment and control groups. All xenograft trials were conducted using 5 to 10 mice per group, and all mice were ear tagged and monitored individually throughout the studies. […] Tumor burden in the systemic MV4-11-Red.Fluc experiment was measured using an IVIS® spectrum from PerkinElmer by taking the total photon flux of the entire dorsal side of an individual mouse. […] A background control mouse that was tumor naive but received D-Luciferin was placed in the upper left corner of each image. The total flux from this animal was subtracted from the total flux of each animal present in the image.
For in vivo studies, maximal tumor growth inhibition (TGI) was calculated as the greatest treatment response using the following equation: Maximal TGI = (1 − mean tumor volume of the treated group/mean tumor volume of the vehicle control group) × 100. The tumor growth delay (TGD) percentage was determined as the percentage increase of the median time period for the treatment group to reach an arbitrary tumor volume of 1000 mm^3 relative to the vehicle control group. […] A power analysis was conducted using historical data to determine the number of animals required to yield significance of 0.05 at a 30% difference. […] Data from experiments in vivo were analyzed using the student’s t-test for TGI values and the Mann–Whitney U test for TGD using Excel and GraphPad Prism. Fisher’s exact test was used to probe significance of differences in response frequency.

[1] = 25 mg/kg, Q7Dx2, IV, SCID-beige female mice, Day 91
[2] = Day 14, 6.25 mg/kg Q7Dx2 IV, control Group 01
[3] = Day 14, 25 mg/kg Q7Dx2 IV, control Group 01
[4] = Day 80, 25 mg/kg Q7Dx2 IV, SCID-beige female mice
[5] = Day 82, 25 mg/kg Q7Dx2 IV, SCID-beige female mice
[6] = SCID-beige female mice, 25 mg/kg Q7Dx2 IV, Day 47, remaining animals
[7] = SCID-beige female mice, 25 mg/kg Q7Dx2 IV, Day 75
[8] = SCID-beige female mice, 25 mg/kg Q7Dx2 IV, Day 88, surviving animals
[9] = control Group 01, 6.25 mg/kg Q7Dx2 IV
[10] = control Group 01, 25 mg/kg Q7Dx2 IV

Cc1c(Cl)c2c(Cl)c(C)c1-c1c(-c3ccc(F)cc3)sc3ncnc(c13)O[C@@H](C(=O)O)Cc1cc(ccc1OCc1ccnc(-c3ccc(OC[C@H]4COCCO4)cc3)n1)OC[C@@H](CN1CCN(C)CC1)O2 [Compound A-1747745.0]
Xenograft AMO-1 (DSMZ) tumor volume Day 91, Mean [1]: 22.37 mm³
Xenograft AMO-1 (DSMZ) tumor volume Day 91, Median [1]: 22.37 mm³
Xenograft AMO-1 (DSMZ) tumor volume Day 91, individual animal [1]: 22 mm³
% Mortality (AMO-1 (DSMZ) xenograft, SCID-beige mouse, 6.25 mg/kg IV Q7Dx2): 100.00%
% Mortality (AMO-1 (DSMZ) xenograft, SCID-beige mouse, 25 mg/kg IV Q7Dx2): 100.00%
% BW Loss (AMO-1 (DSMZ) xenograft, SCID-beige mouse, 25 mg/kg IV Q7Dx2, day 21): -2% (day 21)
Body Weight Day 14, % T/C (mean) [2]: 96.25%
Body Weight Day 14, % T/C (median) [2]: 96.25%
Body Weight Day 14, % T/C (mean) [3]: 98.12%
Body Weight Day 14, % T/C (median) [3]: 98.12%
Xenograft AMO-1 (DSMZ) tumor volume, Mean [4]: 10.80 mm³
Xenograft AMO-1 (DSMZ) tumor volume, Median [4]: 10.80 mm³
Xenograft AMO-1 (DSMZ) tumor volume, individual animal [4]: 11 mm³
Xenograft AMO-1 (DSMZ) tumor volume, Mean [5]: 12.07 mm³
Xenograft AMO-1 (DSMZ) tumor volume, Median [5]: 12.07 mm³
Xenograft AMO-1 (DSMZ) tumor volume, individual animal [5]: 12 mm³
Xenograft AMO-1 (DSMZ) tumor volume Day 47 (individual animal) (SCID-beige female mice, 25 mg/kg Q7Dx2 IV, Day 47): 8 mm³
Xenograft AMO-1 (DSMZ) tumor volume Day 47, Mean [6]: 8.10 mm³
Xenograft AMO-1 (DSMZ) tumor volume Day 47, Median [6]: 8.10 mm³
Xenograft AMO-1 (DSMZ) Day 75 tumor volume, Mean [7]: 13.50 mm³
Xenograft AMO-1 (DSMZ) Day 75 tumor volume, Median [7]: 13.50 mm³
Xenograft AMO-1 (DSMZ) Day 75 tumor volume, individual animals [7]: 14 mm³
Xenograft AMO-1 (DSMZ) Day 88 (tumor volume, individual animals) (SCID-beige female mice, 25 mg/kg Q7Dx2 IV, Day 88): 15 mm³
Xenograft AMO-1 (DSMZ) Day 88, Mean [8]: 14.75 mm³
Xenograft AMO-1 (DSMZ) Day 88, Median [8]: 14.75 mm³
Xenograft AMO-1 (DSMZ) (mm³) Day 84, Mean (group mean tumor volume of remaining animals, SCID-beige female mice, 25 mg/kg Q7Dx2 IV, Day 84): 5.32 mm³
Xenograft AMO-1 (DSMZ) (mm³) Day 16 Mean (group mean, Day 16, 3.13 mg/kg QDx1 IV): 205.11 mm³
Xenograft AMO-1 (DSMZ) (mm³) Day 16 Mean (group mean, Day 16, 6.25 mg/kg QDx1 IV): 172.06 mm³
Xenograft AMO-1 (DSMZ) (mm³) Day 19 Mean (group mean, Day 19, 3.13 mg/kg QDx1 IV): 192.25 mm³
Xenograft AMO-1 (DSMZ) (mm³) Day 19 Mean (group mean, Day 19, 6.25 mg/kg QDx1 IV): 133.62 mm³
Xenograft AMO-1 (DSMZ) (mm³) Day 70, Mean (group mean, 25 mg/kg Q7Dx2 IV, SCID-beige mice, Day 70): 24.72 mm³
Xenograft AMO-1 (DSMZ) (mm³) Day 84, Median (group median tumor volume of remaining animals, SCID-beige female mice, 25 mg/kg Q7Dx2 IV, Day 84): 5.32 mm³
Xenograft AMO-1 (DSMZ) (mm³) Day 16 Median (group median, Day 16, 3.13 mg/kg QDx1 IV): 207.59 mm³
Xenograft AMO-1 (DSMZ) (mm³) Day 16 Median (group median, Day 16, 6.25 mg/kg QDx1 IV): 173.79 mm³
Xenograft AMO-1 (DSMZ) (mm³) Day 19 Median (group median, Day 19, 3.13 mg/kg QDx1 IV): 202.67 mm³
Xenograft AMO-1 (DSMZ) (mm³) Day 19 Median (group median, Day 19, 6.25 mg/kg QDx1 IV): 134.81 mm³
Xenograft AMO-1 (DSMZ) (mm³) Day 70, Median (group median, 25 mg/kg Q7Dx2 IV, SCID-beige mice, Day 70): 24.72 mm³
Xenograft AMO-1 (DSMZ) (mm³) Day 84 (individual animal tumor volume, SCID-beige female mice, 25 mg/kg Q7Dx2 IV, Day 84): 5.32 mm³
% Weight Change (individual weights) (6.25 mg/kg IV Q7Dx2): 0.65%
Weight, g (individual weights) (6.25 mg/kg IV Q7Dx2): 22.14 g
% Weight Change (individual weights) (25 mg/kg IV Q7Dx2): -1.91%
Weight, g (individual weights) (25 mg/kg IV Q7Dx2): 22.00 g
Body Weight (g) Day 14 (individual animals, Day 14, 3.13 mg/kg QDx1 IV): 22 g
Body Weight (g) Day 14 (individual animals, Day 14, 6.25 mg/kg QDx1 IV): 22 g
Xenograft AMO-1 (DSMZ) (mm³) Day 70 (individual animals, 25 mg/kg Q7Dx2 IV, SCID-beige mice, Day 70): 25 mm³
Body Weight Day 14, % T/C (mean) (Day 14, 3.13 mg/kg QDx1 IV): 102.98%
Body Weight Day 14, % T/C (mean) (Day 14, 6.25 mg/kg QDx1 IV): 102.98%
Xenograft AMO-1 Day 16 % T/C (mean) (Day 16, 3.13 mg/kg QDx1 IV): 61.23%
Xenograft AMO-1 Day 16 % T/C (mean) (Day 16, 6.25 mg/kg QDx1 IV): 51.36%
Xenograft AMO-1 Day 19 % T/C (mean) (Day 19, 3.13 mg/kg QDx1 IV): 44.28%
Xenograft AMO-1 Day 19 % T/C (mean) (Day 19, 6.25 mg/kg QDx1 IV): 30.78%
% T/C (mean), Body Weight Day 21 [9]: 96.87%
% T/C (mean), Body Weight Day 21 [10]: 96.25%
Body Weight Day 14, % T/C (median) (Day 14, 3.13 mg/kg QDx1 IV): 102.98%
Body Weight Day 14, % T/C (median) (Day 14, 6.25 mg/kg QDx1 IV): 102.98%
Xenograft AMO-1 Day 16 % T/C (median) (Day 16, 3.13 mg/kg QDx1 IV): 62.33%
Xenograft AMO-1 Day 16 % T/C (median) (Day 16, 6.25 mg/kg QDx1 IV): 52.18%
Xenograft AMO-1 Day 19 % T/C (median) (Day 19, 3.13 mg/kg QDx1 IV): 51.55%
Xenograft AMO-1 Day 19 % T/C (median) (Day 19, 6.25 mg/kg QDx1 IV): 34.29%
% T/C (median), Body Weight Day 21 [9]: 96.87%
% T/C (median), Body Weight Day 21 [10]: 96.25%
Relative to initial body wt., % (mouse, in vivo, iv, 3.13 mg/kg): 0.00%
Body Weight (g) Day 14 (individual animals) (mouse, in vivo, iv, 6.25 mg/kg): 22 g
Body Weight (g) Day 14, Mean (mouse, in vivo, iv, 6.25 mg/kg): 22.00 g
Body Weight (g) Day 14, Median (mouse, in vivo, iv, 6.25 mg/kg): 22.00 g
Body Weight (g) Day 21 (mouse, in vivo, iv, 6.25 mg/kg): 22 g
Body Weight (g) Day 21 Mean (mouse, in vivo, iv, 6.25 mg/kg): 22.14 g
Body Weight (g) Day 21 Median (mouse, in vivo, iv, 6.25 mg/kg): 22.14 g
Body Weight (g) Day 14 (individual animals) (mouse, in vivo, iv, 25 mg/kg): 22 g
Body Weight (g) Day 14, Mean (mouse, in vivo, iv, 25 mg/kg): 22.43 g
Body Weight (g) Day 14, Median (mouse, in vivo, iv, 25 mg/kg): 22.43 g
Body Weight (g) Day 21 (mouse, in vivo, iv, 25 mg/kg): 22 g
Body Weight (g) Day 21 Mean (mouse, in vivo, iv, 25 mg/kg): 22.00 g
Body Weight (g) Day 21 Median (mouse, in vivo, iv, 25 mg/kg): 22.00 g
Xenograft AMO-1 (DSMZ) (mm³) Day 16 (individual animals, Day 16, 3.13 mg/kg QDx1 IV): 195 mm³ and 171 mm³ and 227 mm³ and 217 mm³ and 219 mm³ and 212 mm³ and 203 mm³ and 196 mm³
Xenograft AMO-1 (DSMZ) (mm³) Day 16 (individual animals, Day 16, 6.25 mg/kg QDx1 IV): 158 mm³ and 174 mm³ (2×) and 187 mm³ and 182 mm³ and 167 mm³ and 173 mm³ and 160 mm³
Xenograft AMO-1 (DSMZ) (mm³) Day 19 (individual animals, Day 19, 3.13 mg/kg QDx1 IV): 210 mm³ and 196 mm³ and 181 mm³ and 173 mm³ and 128 mm³ and 213 mm³ and 209 mm³ and 227 mm³
Xenograft AMO-1 (DSMZ) (mm³) Day 19 (individual animals, Day 19, 6.25 mg/kg QDx1 IV): 142 mm³ and 122 mm³ and 113 mm³ and 105 mm³ and 128 mm³ and 144 mm³ and 162 mm³ and 152 mm³
